The text below walks through data of patent US9963496B2, “Stable glucagon analogues and use for treatment of hypoglycaemia” (Novo Nordisk A/S, priority 2014, dated 2018).

One data set in a line: physchem. In kind it is physicochemical. Conditions: pH 7.5. The source says: Assay (III): ThT Fibrillation Assay for the Assessment of Physical Stability of Peptide Compositions The purpose of this assay is to assess the physical stability of the glucagon derivatives of the invention in aqueous solutions. Low physical stability of a peptide may lead to amyloid fibril formation, which is observed as well-ordered, thread-like macromolecular structures in the sample, which eventually may lead to gel formation. This has traditionally been measured by visual inspection of the sample. However, that kind of measurement is very cumbersome and depending on the observer. Therefore, the application of a small molecule indicator probe is much more advantageous. Thioflavin T (ThT) is such a probe and has a distinct fluorescence signature when binding to fibrils [Naiki et al. (1989) Anal. Biochem. 177, 244-249; LeVine (1999) Methods. Enzymol. 309, 274-284]. Here, as depicted in FIG. 1, F is the ThT fluorescence at the time t. The constant t0 is the time needed to reach 50% of maximum fluorescence. The two important parameters describing fibril formation are the lag-time calculated by t0−2τ and the apparent rate constant kapp 1/τ. Samples were prepared freshly before each assay. Each sample composition is described in the legends. The pH of the sample was adjusted to the desired value using appropriate amounts of concentrated NaOH and HCl. Thioflavin T was added to the samples from a stock solution in H2O to a final concentration of 1 μM. Sample aliquots of 200 μl (250 μM of the glucagon derivative/analogue in 10 mM HEPES buffer, pH 7.5) were placed in a 96 well microtiter plate (Packard OptiPlate™-96, white polystyrene). Usually, four or eight replica of each sample (corresponding to one test condition) was placed in one column of wells. The plate was sealed with Scotch Pad (Qiagen). Incubation at given temperature, shaking and measurement of the ThT fluorescence emission were done in a Fluoroskan Ascent FL fluorescence platereader (Thermo Labsystems). The plate was incubated 37° C. with orbital shaking adjusted to 960 rpm with an amplitude of 1 mm. Fluorescence measurement was done using excitation through a 444 nm filter and measurement of emission through a 485 nm filter. Each run was initiated by incubating the plate at the assay temperature for 10 min. The plate was measured every 20 minutes for a desired period of time. Between each measurement, the plate was shaken and heated as described. After completion of the ThT assay the four or eight replica of each sample was pooled and centrifuged at 20000 rpm for 30 minutes at 18° C. The supernatant was filtered through a 0.22 μm filter and an aliquot was transferred to a HPLC vial. The concentration of peptide in the initial sample and in the filtered supernatant was determined by reverse phase HPLC using an appropriate standard as reference. The percentage fraction the concentration of the filtered sample constituted of the initial sample concentration was reported as the recovery. The measurement points were saved in Microsoft Excel format for further processing and curve drawing and fitting was performed using GraphPad Prism. The background emission from ThT in the absence of fibrils was negligible. The data points were typically a mean of four or eight samples and shown with standard deviation error bars. Only data obtained in the same experiment (i.e. samples on the same plate) were presented in the same graph ensuring a relative measure of fibrillation between experiments. The data set may be fitted to Eq. (1).

In a further data set the target is T1, human glucagon receptor (Homo sapiens, UniProt P47871).
T1 construct: expressed in transfected cells; host or cells: BHK cells, clone BHK hGCGR A3*25; isolated membranes
The data set is described as follows: Assay (I)(b): glucagon receptor activation, CRE luciferase reporter gene assay in BHK cells. Conditions: BHK cells expressing human glucagon receptor and CRE luciferase, 3 h incubation; read-out: EC50 hGlucagonR. In kind it is cell-based. Here is the method: The purpose of this assay is to test the activity, or potency, of the derivatives of the invention, in vitro. The in vitro potency is the measure of human GLP-1 receptor and/or glucagon receptor activation, respectively, in a whole cell assay.
In vitro potency was determined by measuring the response of human GLP-1 or glucagon receptor, respectively, in a reporter gene assay. The assay was performed in a stably transfected BHK cell line that expressed either the human GLP-1 receptor or the human glucagon receptor and contained the DNA for the cAMP response element (CRE) coupled to a promoter and the gene for firefly luciferase (CRE luciferase). […] When assay incubation was completed, the luciferase substrate (luciferin) was added and the enzyme converted luciferin to oxyluciferin and produced bioluminescence. The luminescence was measured as the readout for the assay.
(b) Glucagon Receptor Activation
The cells used in this assay (clone pLJ6′-4-25) were BHK cells with BHK570 as a parent cell line expressing the CRE luciferase gene (clone BHK/KZ10-20-48) and were established by further transfection with the human glucagon receptor (clone pLJ6′ in pHZ-1 vector).
The cells were cultured at 5% CO2 in DMEM medium with 10% FBS, 1× GlutaMAX, 1 mg/mL G418, 240 nM MTX (methotrexate) and 1% pen/strep (penicillin/streptomycin). They were aliquoted and stored in liquid nitrogen. Before each assay, an aliquot was taken up and washed three times in PBS before being suspended at the desired concentration in assay buffer. For 96-well plates the suspension was made to give a final concentration of 5×10 EE3 cells/well.
Assay Medium consisted of DMEM w/o phenol red, 10 mM Hepes, lx GlutaMAX, 2% Ovalbumin and 0.2% Pluronic F-68.
Cell stocks were thawed in a 37° C. water bath. Cells were washed three times in PBS. The cells were counted and adjusted to 5×10 EE3 cells/50 μl (1×10 EE5 cells/mL) in Assay Medium. A 50 μl aliquot of cells was transferred to each well in the assay plate.
Stocks of the test compounds and reference compounds were diluted to a concentration of […] in Assay Medium. Compounds were diluted 10-fold to give the following concentrations: […], 2×10 EE-7 M, 2×10 EE-8 M; 2×10 EE-9 M, 2×10 EE-10 M, 2×10 EE-11 M, 2×10 EE-12 M and 2×10 EE-13 M. For each compound a blank assay buffer control was also included.
A 50 μl aliquot of compound or blank was transferred from the dilution plate to the assay plate. Compounds were tested at the following final concentrations: 1×10 EE-6 M, 1×10 EE-7 M, 1×10 EE-8 M; 1×10 EE-9 M, 1×10 EE-10 M, 1×10 EE-11 M and 1×10 EE-12 M and 1×10 EE-13 M.
The assay plate was incubated for 3 h in a 5% CO2 incubator at 37° C. The assay plate was removed from the incubator and allowed to stand at room temperature for 15 min. A 100 μl aliquot of steadylite plus reagent was added to each well of the assay plate (reagent is light sensitive). Each assay plate was covered with aluminum foil to protect it from light and shaken for 30 min at room temperature. Each assay plate was read in a Packard TopCount NXT instrument.
The data from the TopCount instrument was transferred to GraphPad Prism software. The software performed a non-linear regression (log(agonist) vs response-Variable slope (four parameter)). EC50 values were calculated by the software and reported in pM.
Background: Reporter assays use an easily measured gene product as a stand-in for the process of interest.

*1 amine or outer side, *2 acyl side, *3 side chain or, on linkers, in order; H or OH if unused. Where a SMILES comes first, the peptide text is derived from it. Side-chain parts run from the residue outwards. [ ]: non-standard residue; d: D form. The star is where a group is joined. γGlu = O=C(O)[C@H](CCC(=O)[*:2])N[*:1]; Desaminohistidyl = O=C(CCc1c[nH]cn1)*; Aib = CC(C)(N)C(=O)O

T1 sequence (P47871 26-477): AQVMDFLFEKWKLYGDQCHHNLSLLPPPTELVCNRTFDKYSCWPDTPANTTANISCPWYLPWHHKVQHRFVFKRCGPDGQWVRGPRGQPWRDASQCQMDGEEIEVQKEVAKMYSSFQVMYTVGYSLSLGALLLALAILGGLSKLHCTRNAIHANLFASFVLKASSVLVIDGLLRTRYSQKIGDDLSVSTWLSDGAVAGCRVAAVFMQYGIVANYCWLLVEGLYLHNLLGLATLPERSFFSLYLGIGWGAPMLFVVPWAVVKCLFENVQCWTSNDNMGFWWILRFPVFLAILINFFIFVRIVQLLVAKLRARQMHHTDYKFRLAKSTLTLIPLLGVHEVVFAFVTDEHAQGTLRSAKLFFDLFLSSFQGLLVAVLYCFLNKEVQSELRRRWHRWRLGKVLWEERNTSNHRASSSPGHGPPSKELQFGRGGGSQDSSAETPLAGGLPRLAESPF

Usually EC50 stands for the concentration needed to bring the measured effect to its halfway point. Consider `CC(=O)N[C@@H](CCC(=O)N[C@@H](CCC(=O)N[C@@H](CCC(=O)N[C@@H](CCC(=O)NCCCC[C@H](NC(=O)[C@@H](NC(=O)[C@H](Cc1ccccc1)NC(=O)[C@H](CC(=O)O)NC(=O)[C@H](CCC(N)=O)NC(=O)[C@H](C)NC(=O)[C@H](CCCNC(=N)N)NC(=O)[C@H](CCCNC(=N)N)NC(=O)[C@H](CO)NC(=O)[C@H](CCC(=O)O)NC(=O)[C@H](CC(C)C)NC(=O)[C@H](Cc1ccc(O)cc1)NC(=O)[C@H](CCCCN)NC(=O)[C@H](CO)NC(=O)[C@H](Cc1ccc(O)cc1)NC(=O)[C@H](CC(=O)O)NC(=O)[C@H](CO)NC(=O)[C@@H](NC(=O)[C@H](Cc1ccccc1)NC(=O)[C@@H](NC(=O)CNC(=O)[C@H](Cc1c[nH]cn1)NC(=O)C(C)(C)NC(=O)CCc1c[nH]cn1)[C@@H](C)O)[C@@H](C)O)C(C)C)C(=O)N[C@@H](Cc1c[nH]c2ccccc12)C(=O)N[C@@H](CC(C)C)C(=O)N[C@@H](CC(C)C)C(=O)N[C@@H](CO)C(=O)N[C@H](C(=O)O)[C@@H](C)O)C(=O)O)C(=O)O)C(=O)O)C(=O)O` [Example 2, N^ϵ24-[(4S)-4-[[(4S)-4-[[(4S)-4-[[(4S)-4-acetamido-4-carboxybutanoyl]amino]-4-carboxybutanoyl]amino]-4-carboxybutanoyl]amino]-4-carboxybutanoyl]-[Imp1, Aib2, His3, Glu15, Lys24, Leu27, Ser28]-Glucagon] (Desaminohistidyl-[Aib]HGTFTSDYSKYLESRRAQDFVK([γGlu-γGlu-γGlu-γGlu-Ac])WLLST-OH), for which, in “physchem”, the recovery at 250 μM is 104%. For the same compound, the concentration for a half-maximal effect (EC50) at human glucagon receptor is 5 pM.
In turn, `CC(=O)N[C@@H](CCC(=O)N[C@@H](CCC(=O)N[C@@H](CCC(=O)N[C@@H](CCC(=O)NCCCC[C@H](NC(=O)[C@@H](NC(=O)[C@H](Cc1ccccc1)NC(=O)[C@H](CCC(=O)O)NC(=O)[C@H](CCC(N)=O)NC(=O)[C@H](C)NC(=O)[C@H](CCCNC(=N)N)NC(=O)[C@H](CCCNC(=N)N)NC(=O)[C@H](CO)NC(=O)[C@H](CCC(=O)O)NC(=O)[C@H](CC(C)C)NC(=O)[C@H](Cc1ccc(O)cc1)NC(=O)[C@H](CCCCN)NC(=O)[C@H](CO)NC(=O)[C@H](Cc1ccc(O)cc1)NC(=O)[C@H](CC(=O)O)NC(=O)[C@H](CO)NC(=O)[C@@H](NC(=O)[C@H](Cc1ccccc1)NC(=O)[C@@H](NC(=O)CNC(=O)[C@H](Cc1c[nH]cn1)NC(=O)C(C)(C)NC(=O)CCc1c[nH]cn1)[C@@H](C)O)[C@@H](C)O)C(C)C)C(=O)N[C@@H](Cc1c[nH]c2ccccc12)C(=O)N[C@@H](CC(C)C)C(=O)N[C@@H](CC(C)C)C(=O)N[C@@H](CO)C(=O)N[C@H](C(=O)O)[C@@H](C)O)C(=O)O)C(=O)O)C(=O)O)C(=O)O` [Example 7, N^ϵ24-[(4S)-4-[[(4S)-4-[[(4S)-4-[[(4S)-4-acetamido-4-carboxybutanoyl]amino]-4-carboxybutanoyl]amino]-4-carboxybutanoyl]amino]-4-carboxybutanoyl]-[Imp1, Aib2, His3, Glu15, Glu21, Lys24, Leu27, Ser28]-Glucagon] (Desaminohistidyl-[Aib]HGTFTSDYSKYLESRRAQEFVK([γGlu-γGlu-γGlu-γGlu-Ac])WLLST-OH) returned a recovery at 250 μM in the data set “physchem” of 100%. Also, at human glucagon receptor, the EC50 amounted to 2 pM.
Consider `CC(=O)N[C@@H](CCC(=O)N[C@@H](CCC(=O)N[C@@H](CCC(=O)N[C@@H](CCC(=O)NCCCC[C@H](NC(=O)[C@H](CCC(N)=O)NC(=O)[C@H](C)NC(=O)[C@H](CCCNC(=N)N)NC(=O)[C@H](CCCNC(=N)N)NC(=O)[C@H](CO)NC(=O)[C@H](CCC(=O)O)NC(=O)[C@H](CC(C)C)NC(=O)[C@H](Cc1ccc(O)cc1)NC(=O)[C@H](CCCCN)NC(=O)[C@H](CO)NC(=O)[C@H](Cc1ccc(O)cc1)NC(=O)[C@H](CC(=O)O)NC(=O)[C@H](CO)NC(=O)[C@@H](NC(=O)[C@H](Cc1ccccc1)NC(=O)[C@@H](NC(=O)CNC(=O)[C@H](Cc1c[nH]cn1)NC(=O)[C@H](CO)NC(=O)CCc1c[nH]cn1)[C@@H](C)O)[C@@H](C)O)C(=O)N[C@@H](Cc1ccccc1)C(=O)N[C@H](C(=O)N[C@@H](CCC(N)=O)C(=O)N[C@@H](Cc1c[nH]c2ccccc12)C(=O)N[C@@H](CC(C)C)C(=O)N[C@@H](CC(C)C)C(=O)N[C@@H](CO)C(=O)N[C@H](C(=O)O)[C@@H](C)O)C(C)C)C(=O)O)C(=O)O)C(=O)O)C(=O)O` [Example 13, Nϵ^21-[(4S)-4-[[(4S)-4-[[(4S)-4-[[(4S)-4-acetamido-4-carboxybutanoyl]amino]-4-carboxybutanoyl]amino]-4-carboxybutanoyl]amino]-4-carboxybutanoyl]-[Imp1, His3, Glu15, Lys21, Leu27, Ser28]-Glucagon] (Desaminohistidyl-SHGTFTSDYSKYLESRRAQK([γGlu-γGlu-γGlu-γGlu-Ac])FVQWLLST-OH), for which the recovery at 250 μM in “physchem” amounted to 39%. The EC50 at human glucagon receptor is 17 pM.
